# Data taken from paper PMC9374377, “Noninvasive interrogation of CD8^+ T cell effector function for monitoring early tumor responses to immunotherapy” (The Journal of Clinical Investigation, 2022).
# Where a SMILES comes first, the peptide text is derived from it. The star is where a group is joined. X1 = O=C(O)CN1CCN(CC(=O)O)CC(Cc2ccc(NC(=S)*)cc2)N(CC(=O)O)CC1
# Legend:
# [1] = tested on: MC38 tumor–bearing mice; assay: FTY720 treatment of MC38 tumor–bearing mice under anti–PD-1 plus anti–CTLA-4; type: in vivo, mouse
# From the text: MC38 or B16-OVA tumor–bearing C57BL/6 mice were euthanized, and tumor tissues were harvested and digested with 10 U/mL collagenase I, 400 U/mL collagenase IV, and 30 U/mL DNase (Yuanye Bio-Technology) to generate single-cell suspensions. The following fluorescently labeled antibodies were then used for staining of different markers: anti-CD45 (clone 30-F11, BioLegend), anti-CD4 (clone RM4-5, eBioscience), anti-CD8 (clone 53-6.7, BioLegend), anti-NK1.1 (clone PK136, BioLegend), anti–granzyme B (clone QA16A02, BioLegend), and anti–IFN-γ (clone XMG1.2, BioLegend). For granzyme B and IFN-γ staining, cells were incubated in culture medium containing a cell activation cocktail (catalog 423303, BioLegend) at 37°C for 5 hours and then washed with permeabilization wash buffer (catalog 421002, BioLegend) before being stained with fluorescently labeled antibodies. Data collection and analysis were performed on a flow cytometer (Becton Dickinson).
# The tumor sections were fixed with ice-cold acetone for 10 minutes and washed with PBS. Next, the slices were blocked with 1% BSA for 1 hour and incubated with rabbit anti–mouse granzyme B antibody (catalog 17215S, Cell Signaling Technology) or rabbit anti–mouse NK1.1 antibody (clone EPR22990-31, Abcam) overnight at 4°C. The slices were then visualized by incubation with FITC-conjugated secondary antibody (catalog E031220-01, Earthox) and DAPI (Biotium) under a confocal microscope (Leica).
# [2] = tested on: 4T1 tumor–bearing mice; settings: mouse, in vivo
# Experimental: (§1) Small-animal PET scanning and image analysis were performed using a Super Nova PET/CT scanner ([sequence]). […] At the indicated times (0.5, 1, and 2 hours) after injection, 10-minute static PET scans were acquired. PET images were analyzed, and the region of interest–derived (ROI-derived) %ID/g values were calculated as described previously ([52]).
# [3] = tested on: MC38 tumor–bearing mice; settings: mouse, in vivo
# Experimental: as §1
# MC38 tumor-bearing C57BL/6 mice were pretreated with anti-PD-1 antibody
# For the small-animal PET imaging studies, ten MC38 tumor-bearing C57BL/6 mice
# CTLA-4 (clone 9D9; BioXcell) antibodies on days 0, 3, and 6 after the tumor size
# grazytracer. Mice were anesthetized with 2% inhaled isoflurane, and 10-min static PET
# scans were acquired at 0.5, 1, and 2 h postinjection using a small-animal Super Nova
# PET/CT scanner ([sequence], Shanghai, China). The tumor %ID/g values and tumor-
# to-muscle ratios of 68Ga-NOTA-GZP and 68Ga-grazytracer were calculated for
# [4] = In vivo metabolic stability (serum and urine, radio-HPLC); parameters: species or system mouse; settings: female C57BL/6 normal mice, 5.55 MBq i.v.
# From the text: μg/day on days 0, 3, and 6).
# distribution of the radiotracer in the main organs. Mice were euthanized at 0.5, 1, and
# and measured using a γ counter (Packard, Meriden, CT). The results are presented as
# In vivo metabolic stability studies
# grazytracer or 68Ga-NOTA-GZP.
# and analyzed using radio-HPLC.
structure (smiles),measurement,setting,value
CCCCCCCCc1ccc(CCC(N)(CO)CO)cc1 [FTY720],effect on the antitumor effect of anti–PD-1 plus anti–CTLA-4,"[1]; 25 μg i.p. on day –1, 10 μg daily day 0 to 12, n = 6–9",partially reversed the antitumor effect
same,body weight,"[1]; MC38 mice, n = 6–9",without influencing body weight
same,granzyme B secretion in tumors (immunofluorescence),[1]; MC38 tumors on day 6,reduced granzyme B secretion in tumors
same,"levels of NK, CD4+ T and CD8+ T cells in tumor versus group without FTY720","[1]; flow cytometry, day 6, n = 5/group",significantly lower
"OC[C@H]1OC(O)[C@H](F)[C@@H](O)[C@@H]1O (some centres unmarked) [^18F-FDG, ^18F-fluorodeoxyglucose]","change of tumor uptake from days 0 to 6, true-progression 4T1 model",[2],significantly increased
same,"change of tumor uptake from days 0 to 6, pseudoprogression MC38 model",[3],significantly increased
"CC[C@H](C)[C@H](NC(=O)CNC(=O)CNC(=O)CNC(=S)Nc1ccc(CC2CN(CC(=O)O)CCN(CC(=O)O)CCN2CC(=O)O)cc1)C(=O)N[C@@H](CCC(=O)O)C(=O)N[C@@H](Cc1ccccc1)C(=O)N[C@H](C=O)CC(=O)O (some centres unmarked) [^68Ga-NOTA-GZP, ^68Ga-1,4,7–triazacyclononane-1,4,7-triacetic acid–GZP, metal not drawn] (X1-GGGIEFD-aldehyde)",in vivo metabolic stability in blood,[4]; serum at 0.5 hours after injection,favorable stability in the blood
same,in vivo metabolic stability in urine,[4]; urine at 0.5 hours after injection,some decomposition in urine
